Assay results taken from article PMC9486808 (ACS Chemical Biology, 2022).
Values joined by “and” are separate entries in the source; they are usually repeats but may differ in a detail not shown here. Identical values can stand only once. Starred links: 1 amine or outer side, 2 acyl side, 3 side chain; linkers in the order of their positions; H or OH if unused. Positions of bridges follow the written chain, without caps; N, C: chain ends. Non-standard residues stand in square brackets, D forms with d. Residues, ends and D or L forms follow the SMILES beside them. Groups on a side chain read outwards from the residue. *: point of attachment. X1 = O=C([C@H](CCn1nnc2c1-c1ccccc1CN([*:3])c1ccccc1-2)N[*:1])[*:2]; 6FAM = O=C1OC2(c3ccc(O)cc3Oc3cc(O)ccc32)c2cc(C(=O)*)ccc21; AEEA = NCCOCCOCC(=O)O; Ahx = NCCCCCC(=O)O

Tests used:
[1] = target: H1 ectodomain (Influenza A virus, UniProt C3W5S1); experiment: biochemical; format: binding, Influenza A virus A/California/04/2009 (H1N1)
H1 ectodomain, sequence (C3W5S1 entry or part of it, added parts left off): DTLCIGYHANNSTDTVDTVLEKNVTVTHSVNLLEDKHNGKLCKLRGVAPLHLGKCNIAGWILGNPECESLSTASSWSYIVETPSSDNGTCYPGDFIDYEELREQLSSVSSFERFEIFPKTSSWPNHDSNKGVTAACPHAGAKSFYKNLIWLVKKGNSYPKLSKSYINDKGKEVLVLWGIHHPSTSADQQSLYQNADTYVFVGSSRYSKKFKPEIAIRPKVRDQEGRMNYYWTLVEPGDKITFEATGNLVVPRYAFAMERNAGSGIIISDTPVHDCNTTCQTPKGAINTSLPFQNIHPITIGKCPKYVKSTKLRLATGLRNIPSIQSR

[2] = target: H1 HA (Influenza A virus, UniProt C3W5S1); format: binding, Influenza A virus A/California/04/2009 (H1N1)
[3] = tested on: H1N1pdm09 (A/Netherlands/602/2009); format: cell-based, Influenza A virus
[4] = tested on: H1N1pr8 (A/PR8/8/34/Mount Sinai); format: cell-based, Influenza A virus
[5] = tested on: H3N1 virus carrying H3 HA of A/Bilthoven/1761/76 (H3N2) in the H1N1pr8 background; format: cell-based, Influenza A virus
[6] = target: H1 ectodomain of A/California/04/2009 (H1N1) (Influenza A virus, UniProt C3W5S1); format: binding, Influenza A virus A/California/04/2009 (H1N1)
H1 ectodomain of A/California/04/2009 (H1N1), sequence (C3W5S1 entry or part of it, added parts left off): as above

[7] = tested on: H1N1pdm09 (A/Netherlands/602/2009)
[8] = tested on: H5N1 virus carrying H5 HA of A/duck/Hunan/795/2002 in the H1N1pr8 genetic background; conditions: 16 h
[9] = in vitro; conditions: HeLa R19 cells and MDCKI cells

## CC(C)C[C@H](NC(=O)[C@@H]1CSCC(=O)N[C@@H](Cc2ccc(O)cc2)C(=O)N[C@@H](Cc2c[nH]c3ccccc23)C(=O)N[C@@H](Cc2c[nH]cn2)C(=O)N[C@@H](CCCCN)C(=O)N[C@@H](CC(N)=O)C(=O)N[C@@H](CCCCN)C(=O)N[C@@H](Cc2ccc(O)cc2)C(=O)N[C@@H](C(C)C)C(=O)N[C@@H](CC(C)C)C(=O)N[C@@H]([C@@H](C)O)C(=O)N[C@@H](Cc2ccc(O)cc2)C(=O)N[C@@H](CO)C(=O)N1)C(=O)N[C@@H](Cc1ccccc1)C(=O)N[C@@H](C)C(=O)N[C@@H](C)C(=O)NCCOCCOCC(=O)N[C@@H](CCn1nnc2c1-c1ccccc1CN(C(=O)CCCCCNC(=O)c1ccc3c(c1)C1(OC3=O)c3ccc(O)cc3Oc3cc(O)ccc31)c1ccccc1-2)C(=O)NCC(=O)N[C@@H](CC(=O)O)C(=O)N[C@@H](Cc1ccc(O)cc1)C(=O)N[C@@H](CCCCN)C(=O)N[C@@H](CC(=O)O)C(=O)N[C@@H](CC(=O)O)C(=O)N[C@@H](CC(=O)O)C(=O)N[C@@H](CC(=O)O)C(=O)N[C@@H](CCCCN)C(=O)NCC(N)=O [L2FAM] ({CH2CO}-YWHKNKYVLTYSCLFAA[AEEA][X1]([Ahx-6FAM])GDYKDDDDKG-NH2; thioether N-13)
[1]
  Hillslope: 0.91 and 0.70

## CC(C)C[C@H](NC(=O)[C@@H]1CSCC(=O)N[C@@H](Cc2ccc(O)cc2)C(=O)N[C@@H](Cc2c[nH]c3ccccc23)C(=O)N[C@@H](Cc2c[nH]cn2)C(=O)N[C@@H](CCCCN)C(=O)N[C@@H](CC(N)=O)C(=O)N[C@@H](CCCCN)C(=O)N[C@@H](Cc2ccc(O)cc2)C(=O)N[C@@H](C(C)C)C(=O)N[C@@H](CC(C)C)C(=O)N[C@@H]([C@@H](C)O)C(=O)N[C@@H](Cc2ccc(O)cc2)C(=O)N[C@@H](CO)C(=O)N1)C(=O)N[C@@H](Cc1ccccc1)C(=O)N[C@@H](C)C(=O)N[C@@H](C)C(=O)NCC(N)=O [L2] ({CH2CO}-YWHKNKYVLTYSCLFAAG-NH2; thioether N-13)
[1]
  Kd: 2.4 nM
[2]
  ΔTm (°C), purified peptide: 1 °C
[3]
  Inhibition of infection (infected cells relative to untreated control): strongly inhibited infection
[4]
  Inhibition of infection (infected cells relative to untreated control): strongly inhibited infection
[5]
  Inhibition of infection (infected cells relative to untreated control): fell short of inhibiting
[6]
  Binding region in the HA stem (HDX-MS): aa 369–387
[7]
  Inhibition of infection at a single concentration: strong inhibition of infection
[7]; 16 h
  IC50: 69 ± 8.3 nM
[8]
  IC50: 1050 ± 300 nM
[9]
  CC50 at 72 h: > 5000 nM

## CC(C)[C@@H]1NC(=O)[C@H](Cc2c[nH]c3ccccc23)NC(=O)[C@H](CCCNC(=N)N)NC(=O)[C@H](Cc2ccc(O)cc2)NC(=O)CSC[C@@H](C(=O)NCCOCCOCC(=O)N[C@@H](CCn2nnc3c2-c2ccccc2CN(C(=O)CCCCCNC(=O)c2ccc4c(c2)C2(OC4=O)c4ccc(O)cc4Oc4cc(O)ccc42)c2ccccc2-3)C(=O)NCC(=O)N[C@@H](CC(=O)O)C(=O)N[C@@H](Cc2ccc(O)cc2)C(=O)N[C@@H](CCCCN)C(=O)N[C@@H](CC(=O)O)C(=O)N[C@@H](CC(=O)O)C(=O)N[C@@H](CC(=O)O)C(=O)N[C@@H](CC(=O)O)C(=O)N[C@@H](CCCCN)C(=O)NCC(N)=O)NC(=O)[C@H](C(C)C)NC(=O)[C@H](C(C)C)NC(=O)[C@H](Cc2ccccc2)NC(=O)[C@H](Cc2ccc(O)cc2)NC(=O)[C@@H]2CCCN2C(=O)[C@H](CCC(=O)O)NC(=O)[C@H](CO)NC(=O)[C@H](Cc2ccccc2)NC(=O)[C@H](Cc2ccccc2)NC(=O)[C@H](CO)NC(=O)[C@H]([C@@H](C)O)NC(=O)[C@H](Cc2c[nH]c3ccccc23)NC1=O [L4FAM] ({CH2CO}-YRWVWTSFFSEPYFVVC[AEEA][X1]([Ahx-6FAM])GDYKDDDDKG-NH2; thioether N-17)
[1]
  Hillslope: 0.96 and 0.76

## CC[C@H](C)[C@@H]1NC(=O)[C@H](CCCCN)NC(=O)[C@H](CO)NC(=O)[C@H](Cc2c[nH]c3ccccc23)NC(=O)[C@H](Cc2ccc(O)cc2)NC(=O)[C@H]([C@@H](C)CC)NC(=O)[C@H](CCCCN)NC(=O)[C@H](CC(C)C)NC(=O)[C@@H](Cc2ccc(O)cc2)NC(=O)CSC[C@@H](C(=O)NCCOCCOCC(=O)N[C@@H](CCn2nnc3c2-c2ccccc2CN(C(=O)CCCCCNC(=O)c2ccc4c(c2)C2(OC4=O)c4ccc(O)cc4Oc4cc(O)ccc42)c2ccccc2-3)C(=O)NCC(=O)N[C@@H](CC(=O)O)C(=O)N[C@@H](Cc2ccc(O)cc2)C(=O)N[C@@H](CCCCN)C(=O)N[C@@H](CC(=O)O)C(=O)N[C@@H](CC(=O)O)C(=O)N[C@@H](CC(=O)O)C(=O)N[C@@H](CC(=O)O)C(=O)N[C@@H](CCCCN)C(=O)NCC(N)=O)NC(=O)[C@H](Cc2c[nH]c3ccccc23)NC(=O)[C@H](CCC(=O)O)NC(=O)[C@H](CO)NC(=O)[C@H](C(C)C)NC(=O)[C@H](CC(C)C)NC(=O)CNC(=O)[C@H](Cc2c[nH]cn2)NC1=O [S3FAM] ({CH2CO}-[dY]LKIYWSKIHGLVSEWC[AEEA][X1]([Ahx-6FAM])GDYKDDDDKG-NH2; thioether N-17)
[1]
  Hillslope: 1.02 and 0.94

## CC(C)C[C@@H]1NC(=O)[C@H](C(C)C)NC(=O)[C@@H](Cc2ccc(O)cc2)NC(=O)CSC[C@@H](C(=O)NCCOCCOCC(=O)N[C@@H](CCn2nnc3c2-c2ccccc2CN(C(=O)CCCCCNC(=O)c2ccc4c(c2)C2(OC4=O)c4ccc(O)cc4Oc4cc(O)ccc42)c2ccccc2-3)C(=O)NCC(=O)N[C@@H](CC(=O)O)C(=O)N[C@@H](Cc2ccc(O)cc2)C(=O)N[C@@H](CCCCN)C(=O)N[C@@H](CC(=O)O)C(=O)N[C@@H](CC(=O)O)C(=O)N[C@@H](CC(=O)O)C(=O)N[C@@H](CC(=O)O)C(=O)N[C@@H](CCCCN)C(=O)NCC(N)=O)NC(=O)[C@H](C(C)C)NC(=O)[C@H](Cc2c[nH]c3ccccc23)NC(=O)[C@H](Cc2c[nH]cn2)NC(=O)[C@H]([C@@H](C)O)NC(=O)[C@H](C)NC(=O)[C@H](CC(C)C)NC(=O)[C@H]([C@@H](C)O)NC(=O)CNC(=O)[C@H](Cc2c[nH]cn2)NC(=O)[C@H](CC(=O)O)NC(=O)[C@H](Cc2c[nH]c3ccccc23)NC(=O)[C@H](CCCNC(=N)N)NC(=O)[C@H](Cc2ccccc2)NC1=O [S5FAM] ({CH2CO}-[dY]VLFRWDHGTLATHWVC[AEEA][X1]([Ahx-6FAM])GDYKDDDDKG-NH2; thioether N-17)
[1]
  Hillslope: 0.97 and 0.86

## Cyclo(Ac-YITRFTPWPKLYPVWDC)G-NH2 (Ac-YITRFTPWPKLYPVWDCG-NH2; bridge N-17; also: cyclized, linkage type not given here) [L1]
[2]
  ΔTm (°C), purified peptide: 3.8 °C
[7]
  Inhibition of infection at a single concentration: strong inhibition of infection

## Cyclo(Ac-YRFLWSSFSSQPSWVHC)G-NH2 [B5]
[2]
  ΔTm (°C), crude peptide: 1.4 °C

## Cyclo(Ac-YSNNRNWLPHDWQVLYC)G-NH2 [B6]
[2]
  ΔTm (°C), crude peptide: 1.6 °C

## Cyclo(Ac-YSYFDVNTIFWFSPFC)CG-NH2 [S9]
[2]
  ΔTm (°C), crude peptide: 0.0 °C

## Cyclo(Ac-YVQIFDRYGIYSGKWSC)G-NH2 [B8]
[2]
  ΔTm (°C), crude peptide: 1.0 °C

## Cyclo(Ac-YYKALWINATFYQSLVC)G-NH2 [R5]
[2]
  ΔTm (°C), crude peptide: 1.2 °C

## Cyclo(Ac-YYSWFEATGRFRAIFSC)G-NH2 [R4]
[2]
  ΔTm (°C), crude peptide: 1.4 °C

## Cyclo(Ac-yAFWIRWTNHYRSGFTC)G-NH2 [B4]
[2]
  ΔTm (°C), crude peptide: 2.0 °C
[7]
  Inhibition of infection at a single concentration: strong inhibition of infection

## Cyclo(Ac-yFLC)TKWNYGRWYLFYCG-NH2 [R1]
[2]
  ΔTm (°C), crude peptide: 1.4 °C

## Cyclo(Ac-yFVNWYWHGEKLFYRYC)G-NH2 [R2]
[2]
  ΔTm (°C), crude peptide: 2.2 °C

## Cyclo(Ac-yIRLFWINGNLVSEWNC)G-NH2 [S2]
[2]
  ΔTm (°C), crude peptide: 4.4 °C
[6]
  Binding region in the HA stem (HDX-MS): aa 369–387
[7]
  Inhibition of infection at a single concentration: strong inhibition of infection

## Cyclo(Ac-yIVLAWKGHYLESRWTC)G-NH2 [S8]
[2]
  ΔTm (°C), crude peptide: 1.6 °C

## Cyclo(Ac-yLIWPSFNQNAKIIFPC)G-NH2 [B9]
[2]
  ΔTm (°C), crude peptide: 3.6 °C

## Cyclo(Ac-yRQWFYLGKYYC)TWSCCG-NH2 [S4]
[2]
  ΔTm (°C), crude peptide: 0.0 °C

## Cyclo(Ac-yRVFNISWDGEYRSWWC)G-NH2 [B3]
[2]
  ΔTm (°C), crude peptide: 0.4 °C

## Cyclo(Ac-ySYFIWANFQTEPYFVC)G-NH2 [B2]
[2]
  ΔTm (°C), crude peptide: 0.6 °C
[6]
  Binding region in the HA stem (HDX-MS): aa 369–387
[7]
  Inhibition of infection at a single concentration: strong inhibition of infection

## Cyclo(Ac-yTYYVLLQRWPPVWAPC)G-NH2 [B1]
[2]
  ΔTm (°C), crude peptide: 2.0 °C
[6]
  Binding region in the HA stem (HDX-MS): aa 369–387
[7]
  Inhibition of infection at a single concentration: strong inhibition of infection

## Cyclo(Ac-yVIAIRPFSQLCWRWVC)G-NH2 [S7]
[2]
  ΔTm (°C), crude peptide: 0.4 °C

## Cyclo(Ac-yVKIVWFEGTLNTTWFC)G-NH2 [S6]
[2]
  ΔTm (°C), crude peptide: 1.6 °C
